Where “and” joins values, the source holds several entries; their conditions need not be identical. Identical values can stand only once. Numbered stars: 1 amine (or outer) side, 2 acyl side, 3 side chain; on linkers, the order of the positions; unused ones are H or OH. Square brackets hold non-standard residues; d marks the D form. Peptide text beside a SMILES is read from it. azaTyr = O=C(N(Cc1ccc(O)cc1)N[*:1])[*:2]

One assay concerns the target T1, CD36 (Rattus norvegicus, UniProt Q07969).
T1 construct: from tissue; host or cells: Heart (cardiac membranes) of Sprague Dawley rats from Charles River
The assay is described as follows: Competition binding of photoactivatable [125I]-Tyr-Bpa-Ala-Hexarelin to CD36 in rat cardiac membranes. The conditions noted are these: competition with [125I]-Tyr-Bpa-Ala-Hexarelin, rat heart membranes; for IC50: read-out: IC50 (μM), binding affinity for CD36. The protocol:
Hearts from Sprague Dawley rats (300-325 g) from Charles River were cut into small pieces and homogenized with a Polytron® at low speed, 3×15 sec in buffer A (10 mM NaHCO3, 5 mM NaN3, 10 μM Pefabloc®, 0.1 μM Aprotinin, 1 μM Pepstatin A, 1 μM Leupeptin, pH 7.0) at a concentration of […] of tissue. The homogenate was first centrifuged at 8,700×g for 20 min in a Sorvall® centrifuge and the supernatant was collected on ice. The pellet was resuspended and re-homogenized with a Glass-Teflon® Potter by 5 strokes. This homogenate was recentrifuged at 8,700×g for 10 min and the resulting supernatant was combined with the first collected supernatant. The combined supernatant was centrifuged at 35,000×g for 20 min. The pellet fraction obtained was resuspended in Buffer B (20 mM Tris-maleate, 0.6M KCl, pH 6.8) in a volume corresponding to 20 mL/g of fresh tissue using a glass homogenizer with a Teflon pestle. The resulting suspension was centrifuged again at 35,000×g for 60 min. and the pellet fraction obtained was resuspended in Buffer C (10 mM Tris/HCl buffer pH 7.4) and thoroughly homogenized in a glass with a Teflon® pestle (20 ml/g of fresh tissue). This suspension was submitted to another centrifugation at 35,000×g for 60 min. The collected pellet was resuspended in 50 mM Tris/HCl buffer pH 7.4) containing 2 mM EGTA in a final volume corresponding to 1-2 mL/g of fresh tissue. The membrane preparation obtained was frozen at −80° C. Protein concentration was determined using the bicinchoninic acid (BCA) method, employing BSA as standard.
The reaction was started by adding 3 nmol of H2O2 for 5 min at room temperature. This step was repeated twice with a period of 5 min of incubation for each addition. The reaction was stopped by diluting the mixture with 1 mL of 0.1% TFA. The radioiodinated peptide was purified by HPLC on a reverse-phase Vydac® C18 column with a 60-min linear gradient from 20% to 50% of acetonitrile in 0.1% TFA. The eluted radiolabelled tracer was collected, aliquoted (50×10^6 cpm/fraction) and stored at −80° C.
Binding studies with MPE-298 were done with increasing concentrations from 0.01 to 5 μM of competition ligands. Nonspecific binding was defined as binding not displaced by 50 μM corresponding peptide. All peptide containing solutions were diluted in Buffer B. Buffer A and B were degassed under vacuum, and used in capped tubes in order to minimize lipid peroxidation. Before the incubation period, all tubes were put under a low flow of nitrogen. All material was kept on ice and the binding assay was performed in darkness. After an incubation period of 60 min at 22° C. (vortexing every 15 min), membranes were submitted to irradiation with UV lamps (365 nm) for 15 min at 4° C. After centrifugation at 12,000×g for 15 minutes, the pellets were resuspended in 40 μl of sample buffer (62 mM Tris-HCl, pH 6.8, 2% SDS, 10% glycerol, 15% 2-mercaptoethanol, and 0.05% bromophenol blue), and boiled for 5 min prior to being subjected to electrophoresis. Proteins (50 μg/40 μl) were separated on a 7.5% SDS-PAGE Bio-Rad® Mini-Protean electrophoresis system (150 V for 1 h). The gels resulting from SDS/PAGE were fixed, colored in Coomassie Brilliant Blue R-250, dried, exposed to a storage phosphor intensifying screen (Amersham Biosciences), and analysed using a Typhoon® PhosphorImager (GE Healthcare Life Sciences®). […] The curves were analysed by using software package (Graphpad® prism version 7.0).

The test system of assay [1] is R-FSL-1 (TLR2 agonist)-induced NO production in RAW macrophage cell line. The assay can be described thus: Nitric oxide (NO) production induced by TLR2 agonist R-FSL-1 in RAW macrophage cell line. It counts as cell-based, murine. The settings on record: RAW macrophages, at the concentration tested (10^−6 or 10^−7 M), FIGS. 4A to 4F. The protocol: The murine RAW1 macrophage cell line was obtained from American Type Cell Collection (ATCC #TIB-71), seeded at 1.5×10^5 cells/well in Dulbecco's Modified Eagle's medium (DMEM) containing 100 U/mL of penicillin (Pen) and 100 μg/mL of streptomycin (Strep) on a 48-well plate (Costar® #3548), and incubated at 37° C. with 5% CO2. After 2 h, the cell culture medium of adhered cells was removed and replaced by DMEM-Pen/Strep medium containing 0.2% of bovine serum albumin (BSA), and supplemented with the cyclic peptides at a concentration of 10^−6 or 10^−7 M. MPE-001 (DBG178, His-D-Trp-Ala-AzaTyr-D-Phe-Lys-NH2) and [azaLys^6]-GHRP-6 (His-D-Trp-Ala-Trp-D-Phe-azaLys-NH2, negative control) at 10^−6 M were used as positive and negative controls, respectively. After 1 h pre-incubation, the cells were stimulated overnight using the TLR2 ligand fibroblast-stimulating lipopeptide (R-FSL-1) (Invivogen® #L7022) at a concentration of 300 ng/mL. Supernatants were then collected for nitrite production analysis by fluorescence using 2,3-diaminonaphthalene (DAN). Briefly, 25 μL of sample was incubated with 0.5 μg of DAN in a 100 μL final volume of phosphate buffer (50 mM, pH 7.5) at room temperature in the dark. After 15 min, the reaction was stopped with 20 μL of NaOH (2.8N) and the plate was read using a fluorescence plate reader (TECAN® Safire, λexc 365 nm and λem 430 nm).

For assay [2], the system named is R-FSL-1 (TLR2 agonist)-induced TNF-α and CCL-2 release in RAW macrophages. The assay is described as follows: R-FSL-1-induced TNF-α and CCL-2 release in RAW macrophages. The conditions noted are these: 10^−7 M. It is filed as cell-based, murine. The protocol: The murine RAW1 macrophage cell line was obtained from American Type Cell Collection (ATCC #TIB-71). RAW cells were seeded at 150,000 cells per well in a 48-well plate (Costar® #3548) and weaned overnight in medium (DMEM supplemented 1% penicillin/streptomycin) at 37° C. with 5% CO2. The next day, the medium was changed to DMEM-1% penicillin/streptomycin supplemented with 0.2% BSA. The cells were first pretreated with 300 μL of azapeptides DBG178 (MPE-133, reference standard), 25 (MPE-210), 26 (MPE-266), 28 (MPE-268), 32 (MPE-267), 33 (MPE-298), 38 (MPE-308), 35 (MPE-300), 39 (MPE-310) and azaLys6-GHRP-6 (as negative control) at 10^-7M for 30 min. Then, […] of the TLR2 agonist, R-FSL-1 (300 ng/ml final concentration, R-FSL-1, Invivogen® #L7022) was added for 4 h period of incubation at 37° C. with 5% CO2. At the end of the incubation period, media were collected and stored at −80° C. for TNF-α and CCL-2 assays using ELISA kits (EbioScience® #88-7391 and #88-7324). Results were analyzed by analysis of variance (ANOVA) with post hoc comparisons using Dunnett's test with a statistical software package (Graph Pad Prism® version 7.0). P<0.05 was considered statistically significant.

T1 sequence (Q07969 whole entry): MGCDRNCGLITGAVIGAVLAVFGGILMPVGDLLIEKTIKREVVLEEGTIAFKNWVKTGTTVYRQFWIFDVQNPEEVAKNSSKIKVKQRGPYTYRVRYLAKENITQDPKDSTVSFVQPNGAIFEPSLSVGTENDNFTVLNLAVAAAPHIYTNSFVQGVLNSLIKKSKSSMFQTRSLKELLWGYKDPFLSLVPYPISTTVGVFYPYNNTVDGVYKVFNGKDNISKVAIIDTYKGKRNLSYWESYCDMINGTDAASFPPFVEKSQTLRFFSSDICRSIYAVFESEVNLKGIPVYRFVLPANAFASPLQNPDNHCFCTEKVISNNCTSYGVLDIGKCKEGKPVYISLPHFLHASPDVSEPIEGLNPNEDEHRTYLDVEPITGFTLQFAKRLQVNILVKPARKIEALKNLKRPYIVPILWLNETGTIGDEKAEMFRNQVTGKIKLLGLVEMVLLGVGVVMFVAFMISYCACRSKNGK

A word on the IC50: it is the midpoint of a concentration-inhibition curve. Take `C=CCN1CC#CCN(NC(=O)C(C)N)C(=O)N[C@H](Cc2c[nH]c3ccccc23)C(=O)N[C@@H](C)C(=O)N[C@@H](Cc2c[nH]c3ccccc23)C(=O)N[C@H](Cc2ccccc2)C(=O)N[C@H](C(N)=O)CCCC1` (stereo in doubt) [MPE-202]: the IC50 at CD36 came to 14.3 µM.
Still for that read-out and setting: then `C=CCN1CC#CCN(NC(=O)C(N)C(C)C)C(=O)N[C@H](Cc2c[nH]c3ccccc23)C(=O)N[C@@H](C)C(=O)N[C@@H](Cc2c[nH]c3ccccc23)C(=O)N[C@H](Cc2ccccc2)C(=O)N[C@H](C(N)=O)CCCC1` (stereo in doubt) [MPE-203], with 2.26 µM.
The same measure, in the same setting: under `C[C@H](NC(=O)[C@@H](Cc1c[nH]c2ccccc12)NC(=O)[C@@H](N)Cc1c[nH]cn1)C(=O)NN(Cc1ccc(O)cc1)C(=O)N[C@H](Cc1ccccc1)C(=O)N[C@@H](CCCCN)C(N)=O` [MPE-001, His-D-Trp-Ala-AzaTyr-D-Phe-Lys-NH2, reference compound] (H-H[dW]A[azaTyr][dF]K-NH2) stands roughly 2 µM.
Regarding `C=CCN1CC#CCC(NC(=O)[C@H](C)N)C(=O)N[C@H](Cc2c[nH]c3ccccc23)C(=O)N[C@@H](C)C(=O)N[C@@H](Cc2c[nH]c3ccccc23)C(=O)N[C@H](Cc2ccccc2)C(=O)N[C@H](C(N)=O)CCC1` (some centres unmarked) [MPE-048], at CD36, the “binding to CD36 (in words)” value is listed as “detectable binding” and the IC50 stood at 13.7 µM.
In the case of `C=CCN1CC#CC[C@@H](NC(=O)[C@H](C)N)C(=O)N[C@H](Cc2c[nH]c3ccccc23)C(=O)N[C@@H](C)C(=O)N[C@@H](Cc2c[nH]c3ccccc23)C(=O)N[C@H](Cc2ccccc2)C(=O)N[C@H](C(N)=O)CCCC1` [MPE-074], at CD36, the “binding to CD36 (in words)” value was “detectable binding” and the IC50 came out at 1.04 µM.
For `C=CCN1CC#CC[C@H](NC(=O)[C@H](C)N)C(=O)N[C@H](Cc2c[nH]c3ccccc23)C(=O)N[C@@H](C)C(=O)N[C@@H](Cc2c[nH]c3ccccc23)C(=O)N[C@H](Cc2ccccc2)C(=O)N[C@H](C(N)=O)CCCC1` [MPE-075], on CD36, the “binding to CD36 (in words)” value is “detectable binding” and the IC50 stood at 0.66 µM. In addition, the “suppression of R-FSL-1-mediated NO production” value in assay [1] is recorded as “significant suppression”.
On to `C=CCN1CC#CC[C@@H](NC(=O)[C@H](C)N)C(=O)N[C@@H](C)C(=O)N[C@@H](Cc2c[nH]c3ccccc23)C(=O)N[C@H](Cc2ccccc2)C(=O)N[C@H](C(N)=O)CCCC1` [MPE-110], for which, at CD36, the “binding to CD36 (in words)” value is “detectable binding” and the IC50 was 3.32 µM.
With `C=CCN1CC#CC[C@H](NC(=O)[C@H](C)N)C(=O)N[C@@H](C)C(=O)N[C@@H](Cc2c[nH]c3ccccc23)C(=O)N[C@H](Cc2ccccc2)C(=O)N[C@H](C(N)=O)CCCC1` [MPE-111], on CD36, the “binding to CD36 (in words)” value is “detectable binding” and the IC50 is 0.24 µM. For the same compound, in assay [1], the “suppression of R-FSL-1-mediated NO production” value is reported as “significant suppression”.
The like results for `C=CCN1CC#CCN(NC(=O)[C@@H](C)N)C(=O)N[C@H](Cc2c[nH]c3ccccc23)C(=O)N[C@@H](C)C(=O)NN(Cc2ccc(OC)cc2)C(=O)N[C@H](Cc2ccccc2)C(=O)N[C@H](C(N)=O)CCCC1` [MPE-189] were, in that order, “detectable binding”, 3.26 µM and “significant suppression”.
Take `CN1CC#CCN(NC(=O)[C@@H](Cc2c[nH]c3ccccc23)NC(=O)[C@@H](N)Cc2cnc[nH]2)C(=O)N[C@@H](Cc2c[nH]c3ccccc23)C(=O)N[C@H](Cc2ccccc2)C(=O)N[C@H](C(N)=O)CCCC1` [MPE-210]: the IC50 at CD36 worked out at 2.06 µM. In assay [2], the “effect on R-FSL-1-induced CCL-2 release” value is on record as “no significant effect” and the “effect on R-FSL-1-induced TNF-α release” value was “no significant effect”.
As to `C=CCN1CC#CCN(NC(=O)[C@@H](Cc2c[nH]c3ccccc23)NC(=O)[C@@H](N)Cc2cnc[nH]2)C(=O)N[C@@H](Cc2c[nH]c3ccccc23)C(=O)N[C@H](Cc2ccccc2)C(=O)N[C@H](C(N)=O)CCCC1` [MPE-266], the IC50 on CD36 amounted to 0.68 µM. In addition, in assay [1], the “suppression of R-FSL-1-mediated NO production” value was “significant suppression”. In addition, in assay [2], the “effect on R-FSL-1-induced CCL-2 release” value is “significant inhibitory effect” and the “effect on R-FSL-1-induced TNF-α release” value is listed as “significant inhibitory effect”.
Take `C=CCN1CC#CCN(NC(=O)[C@H](C)N)C(=O)N[C@H](Cc2c[nH]c3ccccc23)C(=O)N[C@@H](C)C(=O)N[C@H](C(=O)N[C@H](Cc2ccccc2)C(=O)N[C@@H](CCCCN)C(N)=O)CCCC1` [MPE-300]: the IC50 at CD36 is 10 µM and 10.6 µM. In addition, the “suppression of R-FSL-1-mediated NO production” value in assay [1] is “significant suppression”.
Take `C=CCN1CC#CCN(NC(=O)[C@H](C)N)S(=O)(=O)N[C@H](Cc2c[nH]c3ccccc23)C(=O)N[C@@H](C)C(=O)N[C@@H](Cc2c[nH]c3ccccc23)C(=O)N[C@H](Cc2ccccc2)C(=O)N[C@H](C(N)=O)CCCC1` [MPE-400]: on CD36, the “binding to CD36 (in words)” value is “detectable binding” and the IC50 worked out at 11.6 µM.
